According to patent US20110178131A1, “Compounds Which Have Activity At M1 Receptor And Their Uses In Medicine” (priority 2008, published 2011):
Structures can show the parent of a compound that is named as a salt.

Biological target: T1, human muscarinic M1 receptors (Homo sapiens, UniProt P11229)
T1 construct: expressed in transfected cells
T1 sequence (P11229 1-460): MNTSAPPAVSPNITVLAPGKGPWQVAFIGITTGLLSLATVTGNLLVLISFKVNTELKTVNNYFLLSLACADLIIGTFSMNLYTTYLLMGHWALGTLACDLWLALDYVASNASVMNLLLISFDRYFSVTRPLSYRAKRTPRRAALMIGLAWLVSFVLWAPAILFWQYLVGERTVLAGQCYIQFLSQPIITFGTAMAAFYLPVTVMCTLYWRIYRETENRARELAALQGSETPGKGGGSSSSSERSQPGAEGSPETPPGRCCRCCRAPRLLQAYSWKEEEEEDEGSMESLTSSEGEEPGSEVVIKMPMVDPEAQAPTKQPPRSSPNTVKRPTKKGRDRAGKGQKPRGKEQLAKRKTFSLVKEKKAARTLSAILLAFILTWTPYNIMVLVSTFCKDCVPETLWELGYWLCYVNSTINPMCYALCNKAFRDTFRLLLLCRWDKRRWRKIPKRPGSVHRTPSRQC
Test: FLIPR experiments on M1 receptors (calcium response, agonism)
Format: cell-based
Settings: CHO-M1 cells
Experimental: FLIPR Experiments on M1 Receptors to Determine a Agonist/Antagonist Potency
Compounds of the invention may be characterized in a functional assay to determine their ability to activate the intracellular calcium pathway in CHO cells with stable expression of human muscarinic M1 receptors using FLIPR (Fluorometric Imaging Plate Reader) technology. Briefly, CHO-M1 cells were plated (15,000/well) and allowed to grow overnight at 37 degrees. Media were removed and 30 μL loading buffer (HBSS with 2.5 mM probenicid, 2 μM Fluo-4, 500 μM Brilliant Black, pH 7.4) was added. After incubation at 37 degrees for 90 minutes, 10 μL of the assay buffer (HBSS with 2.5 mM probenecid, pH 7.4) containing test compounds was added to each well on the FLIPR instrument. Calcium response was monitored to determine agonism. […] Calcium response was then monitored again to determine compound's antagonism to acetylcholine. […] Results were imported into ActivityBase data analysis suite (ID Business Solution Inc., Parsippany, N.J.) where the curves were analysed by non-linear curve fitting and the resulting pEC50/fpKi were calculated. The maximum asymptotes of agonist compounds were calculated as percentage of maximum FLIPR response induced by carbamoylcholine chloride added as control on the same compound plates.

EC50 (FLIPR calcium response, agonism, read-out: average pEC50 at the muscarinic M1 receptor (converted)): < 3.16 µM
Emax (maximum asymptote as percentage of maximum FLIPR response induced by carbamoylcholine chloride, read-out: intrinsic activity): > 50%
SMILES: COCC1CCC(N2CCC(n3c(=O)oc4ccc(C#N)cc43)CC2)CC1 (mixture of isomers) [Example 1, 3-(1-{4-[(Methyloxy)methyl]cyclohexyl}-4-piperidinyl)-2-oxo-2,3-dihydro-1,3-benzoxazole-5-carbonitrile hydrochloride]
